Measured values as given in US20170137880A1, “METHOD FOR TREATING DEPRESSION AND MAJOR DEPRESSIVE DISORDER” (Takeda Pharmaceutical Company Limited, priority 2014, published 2017).

Assays:
Format in all cases: in vivo, human
[1] = tested on: adult patients with MDD; experiment: Response rate by treatment and genetic subgroup (responders: 50% decrease in MADRS total score from baseline at week 8); settings: for Response rate: 20 mg/day, 8 weeks; for No Response (number of subjects) / Response (number of subjects): Lu 20 mg only
Experimental: (§1) Multicenter, randomized, double-blind, parallel-group, placebo-controlled, drug-referenced, fixed-dose studies were conducted to evaluate the efficacy and safety of vortioxetine (10, 15 and 20 mg/Day) in the acute treatment of adult patients with MDD. A total of 595 individuals meeting the diagnostic criteria from the DSM-IV-TR for recurrent MDD were included in the studies. The current major depressive disorder for each individual was confirmed by the Structured Clinical Interview for DSM Disorders (SCID). […] Individuals were treated with 10, 15 or 20 mg vortioxetine, or a different drug, or a placebo daily for 8 weeks.
(§2) Subjects were seen weekly during the first 2 weeks of treatment and then every 2 weeks up to the end of the 8-week treatment period. The primary outcome measure was change from baseline in MADRS total score after 8 Weeks of treatment. The Montgomery Asberg Depression Rating Scale (MADRS) is a depression rating scale consisting of 10 items, each rated 0 (no symptom) to 6 (severe symptom). The 10 items represent the core symptoms of depressive illness. The rating is based on a clinical interview with the patient, moving from broadly phrased questions about symptoms to more detailed ones, which allow a precise rating of severity, covering the most recent 7 days. Total score is from 0 to 60, with a higher the score being the more severe.
Secondary outcome measures included the proportion of responders at week 8 (responders defined as a 50% decrease in MADRS total score from baseline); a change from baseline in MADRS total score at week 8; and a change in clinical status using CGI-I score at week 8. The Clinical Global Impression—Global Improvement (CGI-I) scale is a 7-point scale rated from 1 (very much improved) to 7 (very much worse). The investigator rated the patient's overall improvement relative to baseline, whether or not, in the opinion of the investigator, this was entirely due to the drug treatment.
Nucleic acid samples from the individuals were run on an Illumina™ HumanOmni5EXOME whole genome bead-chip array according to the manufacturer's protocol. The raw dataset of 595 samples times 4,641,218 variants was narrowed to 473 samples times 3,923,897 variants following quality control (QC).
(§3) A composite score (or genetic score) was calculated via penalized regression using a set of focused genomic regions. The cutoff point of the genetic score that maximizes treatment specific effect was then identified. Statistical significance (via a parametric bootstrap approach) of the treatment effect for the subgroup defined by the optimal cutpoint was then determined.

[2] = tested on: MDD individuals; experiment: Treatment effect by MADRS and HAM-A scores in genetic subgroups; settings: for Treatment-specific effect (MADRS scores): 5-variant and 7-variant models
Experimental: as §1, §2, §3
A least square means plot of MADRS scores obtained during treatment with 10 mg vortioxetine is shown in FIG. 12B using the 7-variant model. […]

[3] = tested on: adult MDD patients; experiment: Cognition, Cognitive and Physical Functioning Questionnaire (CPFQ); settings: for Cognition (CPFQ): 7-variant model, adult MDD patients
Text: According to the CDC, cognitive impairment is when a person has trouble remembering, learning new things, concentrating, or making decisions that affect their everyday life. Cognitive impairment ranges from mild to severe. With mild impairment, people may begin to notice changes in cognitive functions, but still be able to do their everyday activities. Severe levels of impairment can lead to losing the ability to understand the meaning or importance of something and the ability to talk or write, resulting in the inability to live independently. Cognitive ability can be assessed by, for example, Massachusetts General Hospital Cognitive and Physical Functioning Questionnaire (see, e.g., Fava et al., J. Clin. Psychiatry, 67:11 (2006)) and/or the Digit Symbol Substitution Test (DSST) (see Mahableshwarker et al., Neuropsychopharmacology, in press 2015).
In FIG. 13, the term “SNP7=1” corresponds to patients in the subgroup identified by the 7-variant model; the term “SNP7=0” corresponds to patients not in the subgroup.

Q: How did the Response rate ([1]; COL26A1 rs4045 and a CACNA1C variant positive) turn out when Br.Cc1ccc(Sc2ccccc2N2CCNCC2)c(C)c1 [vortioxetine, 1-[2-(2,4-Dimethyl-phenylsulfanyl)-phenyl]-piperazine, hydrobromide] was run?
A: 14/17

Q: And the Response rate ([1]; Total)?
A: 40/120

Q: And the Response rate ([1]; Variant negative)?
A: 6/25

Q: And the Response rate ([1]; subgroup N/A)?
A: 28/78

Q: What about the “No Response (number of subjects)” value ([1]; <NA>) of the same molecule?
A: 50

Q: What about the “Response (number of subjects)” value ([1]; <NA>) of the same molecule?
A: 28

Q: And the “No Response (number of subjects)” value ([1]; In the Subgroup)?
A: 3

Q: What about the “Response (number of subjects)” value ([1]; In the Subgroup) of the same molecule?
A: 14

Q: What about the “No Response (number of subjects)” value ([1]; Not in Subgroup) of the same molecule?
A: 19

Q: What about the “Response (number of subjects)” value ([1]; Not in Subgroup) of the same molecule?
A: 6

Q: What about the “Treatment-specific effect (MADRS scores)” value ([2]; 10 mg) of the same molecule?
A: evidence for a treatment-specific effect

Q: And the “Treatment-specific effect (MADRS scores)” value ([2]; 20 mg)?
A: evidence for a treatment-specific effect

Q: What about the “Response to treatment as measured by MADRS and HAM-A scores” value ([2]; MDD individuals with rs4045 and a CACNA1C variant) of the same molecule?
A: significantly enhanced response

Q: And the “Cognition (CPFQ)” value ([3]; 10 mg/day)?
A: evidence for improved cognition

Q: And the “Cognition (CPFQ)” value ([3]; 20 mg/day)?
A: evidence for improved cognition

Q: What about the Cognition ([3]; individuals with COL26A1 rs4045 and a CACNA1C variant, 20 mg/day for 8 weeks) of the same molecule?
A: improved cognition
